Experiment: in vitro
Conditions: human, hek293t cells

In order of falling viability at 48 h, 25 µM:
1. C=CC(=O)NCc1nnc2ccccn12 [1-H19, N-({[1,2,4]triazolo[4,3-a]pyridin-3-yl}methyl)prop-2-enamide]  182%
2. C=CC(=O)NCc1cccc(-c2nnc[nH]2)c1 [1-I18, N-{[3-(4H-1,2,4-triazol-3-yl)phenyl]methyl}prop-2-enamide]  172%
3. C=CC(=O)NCc1ccccc1S(=O)(=O)NC(C)(C)C [1-J03, N-{[2-(tert-butylsulfamoyl)phenyl]methyl}prop-2-enamide]  160%
4. C=CC(=O)NC1Cc2ccccc2C1=O (stereo not drawn) [1-H21, N-(1-oxo-2,3-dihydro-1H-inden-2-yl)prop-2-enamide]  156%
5. C=CC(=O)N1CCCC1Cn1c(C)nc2ccccc21 (stereo not drawn) [1-J05, 1-{2-[(2-methyl-1H-1,3-benzodiazol-1-yl)methyl]pyrrolidin-1-yl}prop-2-en-1-one]  149%
6. C=CC(=O)N1CCC(C(=O)Nc2cc(OCC)ccc2Cl)CC1 [1-I20, N-(2-chloro-5-ethoxyphenyl)-1-(prop-2-enoyl)piperidine-4-carboxamide]  122%
7. C=CC(=O)N(Cc1noc2c1CCCC2)CC1CCCC1 [1-H13, N-(cyclopentylmethyl)-N-[(4,5,6,7-tetrahydro-1,2-benzoxazol-3-yl)methyl]prop-2-enamide]  113%
8. C=CC(=O)N1CCN(S(=O)(=O)Cc2ccon2)CC1 [1-J07, 1-{4-[(1,2-oxazol-3-yl)methanesulfonyl]piperazin-1-yl}prop-2-en-1-one]  112%
9. C=CC(=O)NC1COC(C)C1 (stereo not drawn) [1-H17, N-(5-methyloxolan-3-yl)prop-2-enamide]  106%
10. C=CC(=O)N(Cc1cc2ccccn2n1)CC1(O)CCCCC1 [1-H15, N-[(1-hydroxycyclohexyl)methyl]-N-({pyrazolo[1,5-a]pyridin-2-yl}methyl)prop-2-enamide]  102%
11. C=CC(=O)Nc1cc(C(C)C)ccc1C(C)C [1-I21, N-[2,5-bis(propan-2-yl)phenyl]prop-2-enamide]  101%
12. C=CC(=O)Nc1ccc(F)c(C(=O)CC)c1 [1-I22, N-(4-fluoro-3-propanoylphenyl)prop-2-enamide]  101%
13. C=CC(=O)NC(CN1CCCS1(=O)=O)C1CC1 (stereo not drawn) [1-H10, N-[1-cyclopropyl-2-(1,1-dioxo-1lambda6,2-thiazolidin-2-yl)ethyl]prop-2-enamide]  100%
14. C=CC(=O)NC[C@H]1CCCN1S(C)(=O)=O [1-H07, N-{[(2R)-1-methanesulfonylpyrrolidin-2-yl]methyl}prop-2-enamide]  99.1%
15. C=CC(=O)NCC(=O)N1CCCO1 [1-H05, N-[2-(1,2-oxazolidin-2-yl)-2-oxoethyl]prop-2-enamide]  98.5%
16. C=CC(=O)NCC(C)Cn1nccc1C (stereo not drawn) [1-H14, N-[2-methyl-3-(5-methyl-1H-pyrazol-1-yl)propyl]prop-2-enamide]  87.8%
17. C=CC(=O)N1CCC(C(=O)NCc2ccccc2)CC1 [1-I05, N-benzyl-1-(prop-2-enoyl)piperidine-4-carboxamide]  86.7%
18. C=CC(=O)N(Cc1cn(C)nc1CC)C1CCCCCC1 [1-H09, N-cycloheptyl-N-[(3-ethyl-1-methyl-1H-pyrazol-4-yl)methyl]prop-2-enamide]  84.9%
19. C=CC(=O)Nc1cc(OC)cc(S(C)(=O)=O)c1 [1-H16, N-(3-methanesulfonyl-5-methoxyphenyl)prop-2-enamide]  84.1%
20. C=CC(=O)N[C@@H](CC(N)=O)c1cccc(Cl)c1 [1-I15, N-[(1S)-2-carbamoyl-1-(3-chlorophenyl)ethyl]prop-2-enamide]  81.6%
21. C=CC(=O)N1CCN(C(=O)c2ccc(OC)c(OC)c2OC)CC1 [1-H12, 1-[4-(2,3,4-trimethoxybenzoyl)piperazin-1-yl]prop-2-en-1-one]  80%
22. C=CC(=O)NCc1cccc(OC)n1 [1-H22, N-[(6-methoxypyridin-2-yl)methyl]prop-2-enamide]  79.2%
23. C=CC(=O)NC1CCSC(C)C1 (stereo not drawn) [1-J06, N-(2-methylthian-4-yl)prop-2-enamide]  78.4%
24. C=CC(=O)NCc1cc(-c2cccc(OC)c2)no1 [1-I11, N-{[3-(3-methoxyphenyl)-1,2-oxazol-5-yl]methyl}prop-2-enamide]  76.7%
25. C=CC(=O)N(C)CCCn1c(=O)c(C)nc2ccccc21 [1-I08, N-methyl-N-[3-(3-methyl-2-oxo-1,2-dihydroquinoxalin-1-yl)propyl]prop-2-enamide]  76.3%
26. C=CC(=O)NC(C)(C)c1nc(-c2ccccc2F)c(C)s1 [1-H04, N-{2-[4-(2-fluorophenyl)-5-methyl-1,3-thiazol-2-yl]propan-2-yl}prop-2-enamide]  73.5%
27. C=CC(=O)Nc1ccc(C(C)CC(N)=O)cc1 (stereo not drawn) [1-I16, 3-[4-(prop-2-enamido)phenyl]butanamide]  72.6%
28. C=CC(=O)NCC(c1c(F)cccc1F)N1CC(C)OC(C)C1 (stereo not drawn) [1-I13, N-[2-(2,6-difluorophenyl)-2-(2,6-dimethylmorpholin-4-yl)ethyl]prop-2-enamide]  72.5%
29. C=CC(=O)N1CCC(C2CCOC2)C1 (stereo not drawn) [1-H06, 1-[3-(oxolan-3-yl)pyrrolidin-1-yl]prop-2-en-1-one]  70.3%
30. C=CC(=O)NCc1cscn1 [1-I07, N-[(1,3-thiazol-4-yl)methyl]prop-2-enamide]  69.5%
31. C=CC(=O)NCC1CCOC1 (stereo not drawn) [1-H08, N-[(oxolan-3-yl)methyl]prop-2-enamide]  69.4%
32. C=CC(=O)NCC(C)(C)Cn1cccn1 [1-J04, N-[2,2-dimethyl-3-(1H-pyrazol-1-yl)propyl]prop-2-enamide]  69.4%
33. C=CC(=O)Nc1conc1-c1ccccc1 [1-I09, N-(3-phenyl-1,2-oxazol-4-yl)prop-2-enamide]  59.1%
34. C=CC(=O)NCc1ccnn1C [1-H20, N-[(1-methyl-1H-pyrazol-5-yl)methyl]prop-2-enamide]  58%
35. C=CC(=O)N(Cc1cccc2cccnc12)C1CCCN(CC)C1 (stereo not drawn) [1-H11, N-(1-ethylpiperidin-3-yl)-N-[(quinolin-8-yl)methyl]prop-2-enamide]  55.3%
36. C=CC(=O)N1CCN(CC2CCOC2)CC1 (stereo not drawn) [1-H18, 1-{4-[(oxolan-3-yl)methyl]piperazin-1-yl}prop-2-en-1-one]  49.6%
37. C=CC(=O)Nc1ccc(Cl)cc1F [1-I10, N-(4-chloro-2-fluorophenyl)prop-2-enamide]  47.1%
38. C=CC(=O)Nc1ccc(-n2cnnn2)c(F)c1 [1-I17, N-[3-fluoro-4-(1H-1,2,3,4-tetrazol-1-yl)phenyl]prop-2-enamide]  39.9%
39. C=CC(=O)NCc1nc2ccccc2s1 [1-I12, N-[(1,3-benzothiazol-2-yl)methyl]prop-2-enamide]  35.8%
40. C=CC(=O)NCc1ccnc(N2CCSCC2)c1 [1-I14, N-{[2-(thiomorpholin-4-yl)pyridin-4-yl]methyl}prop-2-enamide]  22.1%
41. C=CC(=O)Nc1cc(CC(C)(C)C)no1 [1-I19, N-[3-(2,2-dimethylpropyl)-1,2-oxazol-5-yl]prop-2-enamide]  1.69%
42. C=CC(=O)NC(=O)NCc1ccccc1 [1-I04, 1-benzyl-3-(prop-2-enoyl)urea]  0.515%
